In assay [1] the target is mTOR enzyme (mTOR(1360-2549)+GBL) (Homo sapiens, UniProt P42345). The assay can be described thus: In vitro mTOR kinase assay (TR-FRET). The assay is classed as biochemical. To be noted: 0.25 nM mTOR+GBL, 8 uM ATP; values tied to compounds by order of Table 1; 'x or y' = two alternative values for separated diastereomers of unassigned stereochemistry; read-out: activity level (Ki) in the mTOR kinase assay. In outline:
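Compounds were tested in 10-point dose curves from 10 uM top final concentration. The reaction was stopped with 2 nM Tb-anti-p4E-BP1 (T37/T46) antibody plus 10 mM EDTA for 30 minutes, and phospho-4E-BP1 was detected by TR-FRET. Ki apparent was fitted with the Morrison ATP-competitive tight-binding equation.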
(In general: Time-resolved FRET reads energy transfer from a long-lived donor to a nearby acceptor.)

The subject of assay [2] is AKT serine-473 phosphorylation in PC-3 cells. The assay can be described thus: In vitro phospho-AKT serine 473 cellular assay. The assay is classed as cell-based. To be noted: Homo sapiens; PC-3 cells stimulated with EGF; first nine specific compounds; read-out: EC50 activity level, inhibition of AKT serine-473 phosphorylation. The protocol: b. In Vitro Phospho-AKT Serine 473 Cellular Assay
The assay measures a test compound's inhibition of AKT serine-473 phosphorylation in human prostate adenocarcinoma derived PC-3 (ATCC CRL-1435) cells that have been stimulated with epidermal growth factor (EGF).
The PC-3 cell line is maintained in RPMI1640 media supplemented with 10% FBS, 2 mM Glutamine, and 10 mM HEPES pH 7.4 at 37° C. in a 5% CO2 humidified incubator.
Cells are seeded in 384-well plates at 7,000 cells/well in 50 μl growth media. After 24 hours, growth media is removed and replaced with RPMI1640 containing no FBS. Cells are treated with 10 concentrations of test compounds or DMSO alone for controls (final DMSO concentration 0.5%) and incubated at 37° C. for 30 minutes. Cells are then stimulated for 10 minutes with 100 ng/ml EGF (final concentration). One column of controls is not stimulated with EGF to observe the signal ratio between stimulated and non-stimulated cells. After 10 minutes, compounds and stimulation media are removed and replaced with 25 μl lysis buffer containing protease inhibitors and phosphatase inhibitors. This buffer contains detergent to bring about cellular disruption. […] Following the transfer of lysate to the MSD plate, AKT in the lysate is captured on the coated antibody by incubation on a shaker at 4° C. for 16 hours. Following the capture step the plate is washed and then incubated for two hours with an antibody to S473 phosphorylated AKT which is conjugated with a Sulfo-Tag. This tag gives a signal when in proximity to the electrode on the base of the MSD plate. Binding the tagged antibody to the captured protein allow detection on a MSD reader.
EC50 values are calculated using MDL Assay Explorer 3.0.1.8 fitting a sigmoidal curve with a variable slope.

In a further assay the test system is PC3 cells. The assay is described as follows: In vitro cell proliferation assay. It counts as cell-based, human. To be noted: values tied to compounds by order of Table 1. An outline of the steps:
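PC3 (or MDAMB361.1) cells, ~10^3/well, settled overnight, then exposed to compound for 3 days; viability read by CellTiter-Glo luminescence (RLU). Alternatively, 4-day compound exposure followed by Alamar Blue for 6 h, fluorescence 544/590 nm; EC50 from sigmoidal dose-response fit.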

Where [3] appears, read: Homo sapiens, PC-3, with PC3 cells.

The term Ki denotes the equilibrium dissociation constant of an inhibitor or competing ligand from its target. By EC50 is commonly meant the concentration at which the effect is half-maximal.

mTOR enzyme (mTOR(1360-2549)+GBL), sequence (P42345 1360-2549, species assumed): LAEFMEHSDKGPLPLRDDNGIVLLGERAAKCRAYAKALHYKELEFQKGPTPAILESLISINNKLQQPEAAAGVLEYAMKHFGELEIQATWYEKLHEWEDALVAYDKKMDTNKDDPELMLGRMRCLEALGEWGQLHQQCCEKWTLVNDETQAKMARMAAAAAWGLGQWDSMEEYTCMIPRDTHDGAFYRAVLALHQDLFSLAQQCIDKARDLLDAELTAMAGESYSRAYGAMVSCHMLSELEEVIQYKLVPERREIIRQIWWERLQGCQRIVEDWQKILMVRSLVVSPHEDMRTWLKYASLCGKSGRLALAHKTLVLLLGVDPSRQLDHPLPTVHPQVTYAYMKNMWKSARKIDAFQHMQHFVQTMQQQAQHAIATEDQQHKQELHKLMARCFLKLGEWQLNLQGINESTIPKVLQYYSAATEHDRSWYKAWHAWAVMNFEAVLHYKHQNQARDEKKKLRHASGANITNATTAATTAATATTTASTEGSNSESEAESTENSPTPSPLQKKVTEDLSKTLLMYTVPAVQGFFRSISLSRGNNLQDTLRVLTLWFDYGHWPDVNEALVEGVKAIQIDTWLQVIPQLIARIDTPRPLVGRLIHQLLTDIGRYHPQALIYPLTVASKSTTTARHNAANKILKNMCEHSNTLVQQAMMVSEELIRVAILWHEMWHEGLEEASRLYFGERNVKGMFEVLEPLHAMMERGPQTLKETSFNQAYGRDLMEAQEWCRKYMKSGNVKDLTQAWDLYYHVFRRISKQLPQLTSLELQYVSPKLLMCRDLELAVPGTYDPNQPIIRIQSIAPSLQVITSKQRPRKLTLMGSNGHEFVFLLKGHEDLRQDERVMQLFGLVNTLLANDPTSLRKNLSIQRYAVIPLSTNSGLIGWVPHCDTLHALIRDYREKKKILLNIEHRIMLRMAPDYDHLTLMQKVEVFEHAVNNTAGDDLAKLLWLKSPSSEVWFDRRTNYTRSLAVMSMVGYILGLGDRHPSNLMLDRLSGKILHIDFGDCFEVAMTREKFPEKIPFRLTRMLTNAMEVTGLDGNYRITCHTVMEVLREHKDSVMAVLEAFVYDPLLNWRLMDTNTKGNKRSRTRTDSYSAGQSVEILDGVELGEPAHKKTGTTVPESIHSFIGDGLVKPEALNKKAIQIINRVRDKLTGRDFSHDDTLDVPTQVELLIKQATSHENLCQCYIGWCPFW
mTOR enzyme (mTOR(1360-2549)+GBL), sequence (Q9BVC4 whole entry partner, species assumed): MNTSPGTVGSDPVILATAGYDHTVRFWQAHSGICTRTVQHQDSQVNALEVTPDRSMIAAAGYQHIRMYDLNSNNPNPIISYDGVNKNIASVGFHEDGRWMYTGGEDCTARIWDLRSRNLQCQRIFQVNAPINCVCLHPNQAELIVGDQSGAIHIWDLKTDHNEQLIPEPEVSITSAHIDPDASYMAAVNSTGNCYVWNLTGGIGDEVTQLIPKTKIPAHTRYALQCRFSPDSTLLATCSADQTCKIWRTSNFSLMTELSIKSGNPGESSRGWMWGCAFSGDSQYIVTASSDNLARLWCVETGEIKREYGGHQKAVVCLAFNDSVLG

As to `C[C@H]1COCCN1c1nc(-c2ccc(NC(=O)Nc3cnn(C)c3)cc2)nc2c1COCC2` [Example 22, (S)-1-(1-methyl-1H-pyrazol-4-yl)-3-(4-(4-(3-methylmorpholino)-7,8-dihydro-5H-pyrano[4,3-d]pyrimidin-2-yl)phenyl)urea], the Ki in assay [1] was 4 nM. For the same molecule, the results for the EC50 (in assay [2]; with PC3 cells (setting [3])) were 42 nM and 59 nM, respectively.
Consider `C[C@H]1COCCN1c1nc(-c2ccc(NC(=O)Nc3ccon3)cc2)nc2c1COCC2` [Example 20, (S)-1-(isoxazol-3-yl)-3-(4-(4-(3-methylmorpholino)-7,8-dihydro-5H-pyrano[4,3-d]pyrimidin-2-yl)phenyl)urea], for which the Ki in assay [1] was determined as 2 nM. Also, the EC50 in assay [2] worked out at 15 nM; with PC3 cells (setting [3]) it was 94 nM.
Turning to `CCNC(=O)Nc1ccc(-c2nc3c(c(N4CCOCC4)n2)COCC3)cc1` [Example 18, 1-ethyl-3-(4-(4-morpholino-7,8-dihydro-5H-pyrano[4,3-d]pyrimidin-2-yl)phenyl)urea], in assay [2], the concentration for a half-maximal effect (EC50) was 237 nM.
For the molecule `C[C@H]1COCCN1c1nc(-c2ccc(NC(=O)NC[C@@H](O)CO)cc2)nc2c1CCC1(CC1)O2` [Example 69, 1-((R)-2,3-dihydroxypropyl)-3-(4-(4′-((S)-3-methylmorpholino)-5′,6′-dihydrospiro[cyclopropane-1,7′-pyrano[2,3-d]pyrimidine]-2′-yl)phenyl)urea], the Ki in assay [1] worked out at 2 nM. The molecule also came in with an EC50 in the assay on PC3 cells (setting [3]) of 1200 nM.
The like results for `CCNC(=O)Nc1ccc(-c2nc3c(c(N4[C@@H]5CC[C@H]4COC5)n2)COC3)cc1` [Example 98, 1-(4-(4-((1R,5S)-3-oxa-8-azabicyclo[3.2.1]octan-8-yl)-5,7-dihydrofuro[3,4-d]pyrimidin-2-yl)phenyl)-3-ethylurea] were, in that order, 8 nM and 331 nM.
The like results for `CCNC(=O)Nc1ccc(-c2nc3c(c(N4CCOCC4)n2)CCC2(CC2)O3)cc1` [Example 14, 1-ethyl-3-(4-(4′-morpholino-5′,6′-dihydrospiro[cyclopropane-1,7′-pyrano[2,3-d]pyrimidine]-2′-yl)phenyl)urea] were, in that order, 3 nM and 84 nM.
The like results for `CCNC(=O)Nc1ccc(-c2nc3c(c(N4CCOC[C@@H]4C)n2)CCOC3)cc1` [Example 13 al, (S)-1-ethyl-3-(4-(4-(3-methylmorpholino)-6,8-dihydro-5H-pyrano[3,4-d]pyrimidin-2-yl)phenyl)urea] were, in that order, 2 nM and 194 nM.
As to `C[C@H]1COCCN1c1nc(-c2ccc(Nc3cccc(=O)[nH]3)cc2)nc2c1COCC2` [Example 29, (S)-6-(4-(4-(3-methylmorpholino)-7,8-dihydro-5H-pyrano[4,3-d]pyrimidin-2-yl)phenylamino)pyridin-2(1H)-one], the Ki in assay [1] stood at 5 nM. Also, the EC50 with PC3 cells (setting [3]) was 341 nM.
For `CCC[C@]1(C)OCc2c(N3CCOCC3)nc(-c3ccc(NC(=O)NCC)cc3)nc21` [Example 73 ef (S), (S)-1-ethyl-3-(4-(7-methyl-4-morpholino-7-propyl-5,7-dihydrofuro[3,4-d]pyrimidin-2-yl)phenyl)urea], in that order: 2 nM and 35 nM.
The like results for `Nc1ccc(-c2nc3c(c(N4[C@@H]5CC[C@H]4COC5)n2)CCCO3)cn1` [Example 132, 5-(4-((1R,5S)-3-oxa-8-azabicyclo[3.2.1]octan-8-yl)-6,7-dihydro-5H-pyrano[2,3-d]pyrimidin-2-yl)pyridin-2-amine] were, in that order, 32 nM and 585 nM.
As to `O=C(NCCO)Nc1ccc(-c2nc3c(c(N4[C@@H]5CC[C@H]4COC5)n2)CCC2(CC2)O3)cc1` [Example 72, 1-(4-(4′-((1R,5S)-3-oxa-8-azabicyclo[3.2.1]octan-8-yl)-5′,6′-dihydrospiro[cyclopropane-1,7′-pyrano[2,3-d]pyrimidine]-2′-yl)phenyl)-3-(2-hydroxyethyl)urea], the Ki in assay [1] worked out at 1 nM. This molecule showed an EC50 in the assay on PC3 cells (setting [3]) of 173 nM.
For `CCNC(=O)Nc1ccc(-c2nc3c(c(N4CCOC[C@@H]4C)n2)COC(C)(C)C3)cc1` [(S)-1-(4-(7,7-dimethyl-4-(3-methylmorpholino)-7,8-dihydro-5H-pyrano[4,3-d]pyrimidin-2-yl)phenyl)-3-ethylurea], in that order: 3 nM and 50 nM.
The like results for `C[C@H]1COCCN1c1nc(-c2ccc(NC(=O)NCCS(C)(=O)=O)cc2)nc2c1CCC1(CC1)O2` [Example 57, (S)-1-(4-(4′-(3-methylmorpholino)-5′,6′-dihydrospiro[cyclopropane-1,7′-pyrano[2,3-d]pyrimidine]-2′-yl)phenyl)-3-(2-(methylsulfonyl)ethyl)urea] were, in that order, 5 nM and 595 nM.
On to `C[C@H]1COCCN1c1nc(-c2ccc(NC(=O)NC3COC3)cc2)nc2c1CCC1(CC1)O2` [Example 51, (S)-1-(4-(4′-(3-methylmorpholino)-5′,6′-dihydrospiro[cyclopropane-1,7′-pyrano[2,3-d]pyrimidine]-2′-yl)phenyl)-3-(oxetan-3-yl)urea], for which, in assay [1], the Ki worked out at 1 nM. Further, in the assay with PC3 cells (setting [3]), it took 77 nM to reach a half-maximal effect (EC50).
The like results for `CNC(=O)Nc1ccc(-c2nc3c(c(N4CCOC[C@@H]4C)n2)COCC3)cc1` [Example 58, (S)-1-methyl-3-(4-(4-(3-methylmorpholino)-7,8-dihydro-5H-pyrano[4,3-d]pyrimidin-2-yl)phenyl)urea] were, in that order, 7 nM and 173 nM.
For `CCNC(=O)Nc1ccc(-c2nc(N3CCOC[C@@H]3C)c3c(n2)[C@](C)(CC(C)O)OC3)cc1` (stereo partly drawn) [1-ethyl-3-(4-((7S)-7-(2-hydroxypropyl)-7-methyl-4-((S)-3-methylmorpholino)-5,7-dihydrofuro[3,4-d]pyrimidin-2-yl)phenyl)urea], in that order: 2 nM and 25 nM.
The like results for `C[C@H]1COCCN1c1nc(-c2ccc3onc(N)c3c2)nc2c1COC2(C)C` [Example 121, (S)-5-(7,7-dimethyl-4-(3-methylmorpholino)-5,7-dihydrofuro[3,4-d]pyrimidin-2-yl)benzo[d]isoxazol-3-amine] were, in that order, 390 nM and 1300 nM.
Turning to `CCNC(=O)Nc1ccc(-c2nc(N3CCOC[C@@H]3C)c3c(n2)[C@@](C)(CCn2ccnc2C)OC3)cc1` [Example 81 et (R), 1-ethyl-3-(4-((R)-7-methyl-7-(2-(2-methyl-1H-imidazol-1-yl)ethyl)-4-((S)-3-methylmorpholino)-5,7-dihydrofuro[3,4-d]pyrimidin-2-yl)phenyl)urea], the inhibitory constant (Ki) in assay [1] came out at 67 nM. Besides, the EC50 in the assay on PC3 cells (setting [3]) was 274 nM.
In the case of `CCNC(=O)Nc1ccc(-c2nc(N3CCOC[C@@H]3C)c3c(n2)C(C)(CCn2ccnc2)OC3)cc1` (single isomer, unassigned) [Example 80 es (S)], the Ki in assay [1] is 2 nM. Also, in the assay on PC3 cells (with PC3 cells), the EC50 was 316 nM.
Take `C=CC[C@@]1(C)OCc2c(N3CCOC[C@@H]3C)nc(-c3ccc(NC(=O)NCC)cc3)nc21` [Example 85 ek^2]: in assay [1], the Ki is 2 nM. In the assay on PC3 cells (setting [3]), this molecule registered an EC50 of 66 nM.
For `CNC(=O)Nc1ccc(-c2nc3c(c(N4CCOC[C@@H]4C)n2)CCC2(CC2)O3)cc1` [Example 56, (S)-1-methyl-3-(4-(4′-(3-methylmorpholino)-5′,6′-dihydrospiro[cyclopropane-1,7′-pyrano[2,3-d]pyrimidine]-2′-yl)phenyl)urea], in that order: 1 nM and 37 nM.
Regarding `CCNC(=O)Nc1ccc(-c2nc3c(c(N4CCOCC4)n2)CCCO3)cc1` [Example 15, 1-ethyl-3-(4-(4-morpholino-6,7-dihydro-5H-pyrano[2,3-d]pyrimidin-2-yl)phenyl)urea], the EC50 in assay [2] is 85 nM; in the assay with PC3 cells (setting [3]) it was 194 nM.
Turning to `C[C@H]1COCCN1c1nc(-c2ccc(NC(=O)NC3CCC3)cc2)nc2c1COCC2` [Example 26, (S)-1-cyclobutyl-3-(4-(4-(3-methylmorpholino)-7,8-dihydro-5H-pyrano[4,3-d]pyrimidin-2-yl)phenyl)urea], the Ki in assay [1] was found to be 14 nM. This molecule showed an EC50 in the assay with PC3 cells (setting [3]) of 1600 nM.

The values are drawn from US20100331305A1, “OXO-HETEROCYCLE FUSED PYRIMIDINE COMPOUNDS, COMPOSITIONS AND METHODS OF USE” (Genentech, Inc., priority 2009, published 2010).
